# Laboratory results reported in US9540702B2, “Stabilization of enzymes with stable coenzymes” (Roche Diabetes Care, Inc., priority 2009, dated 2017).
# Assays:
# alcohol dehydrogenase = molecular target: T1, alcohol dehydrogenase (Saccharomyces cerevisiae, UniProt P00330); assay: DSC of coenzyme binding; settings: 3.8 mM ligand; 0.75M glycine sodium pyrophosphate, pH 9.0
# T1 sequence (P00330 1-348): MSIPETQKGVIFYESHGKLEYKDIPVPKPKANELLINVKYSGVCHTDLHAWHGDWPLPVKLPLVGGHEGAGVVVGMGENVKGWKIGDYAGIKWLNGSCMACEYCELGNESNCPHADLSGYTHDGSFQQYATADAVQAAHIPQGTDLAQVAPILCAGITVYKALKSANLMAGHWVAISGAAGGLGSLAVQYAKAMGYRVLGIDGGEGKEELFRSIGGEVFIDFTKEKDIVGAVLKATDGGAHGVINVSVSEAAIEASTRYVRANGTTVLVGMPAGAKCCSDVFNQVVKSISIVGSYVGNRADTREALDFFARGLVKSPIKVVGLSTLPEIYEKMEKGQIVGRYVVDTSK
# [1] = system: L-lactate dehydrogenase (porcine); assay: DSC of coenzyme binding; settings: 3.8 mM ligand; 0.1 M Tris buffer, pH 8.5
# diaphorase [2] = assay: Diaphorase activity extracted from triglyceride test strips after storage; format: biochemical; settings: triglyceride test strips stored at 32° C. and 30-70% relative air humidity
# Experimental: A composition which, among others, contained glycerol dehydrogenase, carbaNAD, diaphorase and a tetrazolium salt was used to determine triglycerides. Test strips were obtained by applying the formulation mentioned in Table 4 to a polycarbonate foil by means of a doctor blade (layer height 80 μm) and subsequent drying, and they were stored at 32° C. and 30-70% relative air humidity.
# diaphorase [3] = assay: Enzyme activity in test strips stored up to 18 weeks (Table 7); format: biochemical
# Experimental: In order to evaluate the stabilization of glucose dehydrogenase and diaphorase by carbaNAD, a number of test strips were prepared in analogy to Example 5.
# The test strips were stored over a period of 18 weeks at temperatures of 5° C. (KS, refrigerator), 25° C. (RT), 30° C. (GT), 35° C. (DT) and 45° C. (HT), and the enzyme activity in the test strips was determined at the start of storage (0 weeks), after 6 weeks, after 9 weeks, after 12 weeks and after 18 weeks. The results are shown in Table 6 (glucose dehydrogenase) and in Table 7 (diaphorase).
# [4] = molecular target: T2, alcohol dehydrogenase (ADH) (Saccharomyces cerevisiae, UniProt P00330); assay: Stability of alcohol dehydrogenase with coenzyme in a liquid phase at 35° C.; format: biochemical, yeast; settings: 65 hours at 35° C., 5 mg/ml ADH, 50 mg/ml coenzyme, pH 9.0
# T2 sequence (P00330 1-348): T1 sequence (P00330 1-348)
# Experimental: FIG. 12 is a graphical illustration of the stability of alcohol dehydrogenase from yeast in the presence of NAD or cNAD in a liquid phase at 35° C. for a period of 65 hours with test conditions of 5 mg/ml ADH; 50 mg/ml NAD or cNAD; buffer: 75 mM Na4P2O7; glycine, pH 9.0; temperature 35° C.
# (§1) cNAD or NAD was added to a detection solution containing alcohol dehydrogenase. These mixtures were stored at 2-8° C. and at 35° C. Subsequently, the stability of alcohol dehydrogenase (ADH) was checked at regular intervals and the residual activity of the enzyme was determined.
# The residual activity of alcohol dehydrogenase in the presence of the native coenzyme NAD is at about 6% after 65 hours at 35° C., whereas the residual activity of the enzyme in the presence of the artificial coenzyme cNAD is still at about 60%.
# D-lactate dehydrogenase = D-lactate dehydrogenase (Lactobacillus delbrueckii subsp. bulgaricus, UniProt P26297); assay: DSC of coenzyme binding; settings: 3.8 mM ligand; 0.1M Tris buffer, pH 7.5
# [5] = molecular target: T2, alcohol dehydrogenase (ADH); assay: Storage of alcohol dehydrogenase detection solution with NAD or cNAD (Tables 1 and 2); format: biochemical, yeast
# Experimental: as §1
# If alcohol dehydrogenase is stored together with native NAD or with cNAD for several months at 2-8° C. in a refrigerator, then one observes in the case of […] a considerable decrease in enzyme activity over the entire storage period. Whereas the difference after 2 weeks storage is still slight, there is an approximately 20% higher residual activity of alcohol dehydrogenase after 12 months storage in the presence of 16 mM cNAD compared to a corresponding solution containing 16 mM NAD as the coenzyme.
# Accordingly, the residual activity of alcohol dehydrogenase can be increased somewhat in samples that have been stored for 2 weeks at 2-8° C. by increasing the concentration of cNAD.
# [6] = 16 mmol/l coenzyme, initial value
# Sequence of D-lactate dehydrogenase (P26297 whole entry): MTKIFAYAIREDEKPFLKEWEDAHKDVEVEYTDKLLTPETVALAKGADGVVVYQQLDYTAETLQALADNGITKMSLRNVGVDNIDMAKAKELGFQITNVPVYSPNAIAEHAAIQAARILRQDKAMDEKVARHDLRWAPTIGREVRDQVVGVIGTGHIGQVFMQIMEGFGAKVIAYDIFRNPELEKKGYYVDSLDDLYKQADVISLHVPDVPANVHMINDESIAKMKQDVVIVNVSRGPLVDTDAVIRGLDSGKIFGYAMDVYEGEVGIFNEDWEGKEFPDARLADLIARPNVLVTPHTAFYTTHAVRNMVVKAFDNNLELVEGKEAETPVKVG
smiles,measurement,setting,value
NC(=O)c1ccc[n+]([C@@H]2C[C@H](COP(=O)([O-])OP(=O)(O)OC[C@H]3O[C@@H](n4cnc5c(N)ncnc54)[C@H](O)[C@@H]3O)[C@@H](O)[C@H]2O)c1 [carbaNAD],TM,alcohol dehydrogenase,55.4 °C
same,ΔHcal,alcohol dehydrogenase,310 kcal/mol
same,TM,[1],61.5 °C
same,ΔHcal,[1],82 kcal/mol
same,residual activity of diaphorase compared to formulation containing NAD,diaphorase [2],considerably increased residual activity
same,"Enzyme activity, diaphorase",diaphorase [3]; 0 weeks (start of storage),4.6 U/cm^2
same,"Enzyme activity, diaphorase","diaphorase [3]; DT (35° C.), 6 weeks",3.4 U/cm^2
same,"Enzyme activity, diaphorase","diaphorase [3]; DT (35° C.), 9 weeks",4.4 U/cm^2
same,"Enzyme activity, diaphorase","diaphorase [3]; DT (35° C.), 12 weeks",4.0 U/cm^2
same,"Enzyme activity, diaphorase","diaphorase [3]; DT (35° C.), 18 weeks",5.3 U/cm^2
same,"Enzyme activity, diaphorase","diaphorase [3]; GT (30° C.), 12 weeks",4.3 U/cm^2
same,"Enzyme activity, diaphorase","diaphorase [3]; GT (30° C.), 18 weeks",6.2 U/cm^2
same,"Enzyme activity, diaphorase","diaphorase [3]; HT (45° C.), 6 weeks",3.9 U/cm^2
same,"Enzyme activity, diaphorase","diaphorase [3]; HT (45° C.), 9 weeks",3.8 U/cm^2
same,"Enzyme activity, diaphorase","diaphorase [3]; KS (5° C.), 6 weeks",4.4 U/cm^2
same,"Enzyme activity, diaphorase","diaphorase [3]; KS (5° C.), 9 weeks",5.2 U/cm^2
same,"Enzyme activity, diaphorase","diaphorase [3]; KS (5° C.), 12 weeks",4.8 U/cm^2
same,"Enzyme activity, diaphorase","diaphorase [3]; KS (5° C.), 18 weeks",7.0 U/cm^2
same,"Enzyme activity, diaphorase","diaphorase [3]; RT (25° C.), 6 weeks",4.5 U/cm^2
same,"Enzyme activity, diaphorase","diaphorase [3]; RT (25° C.), 9 weeks",5.1 U/cm^2
same,"Enzyme activity, diaphorase","diaphorase [3]; RT (25° C.), 12 weeks",4.6 U/cm^2
same,"Enzyme activity, diaphorase","diaphorase [3]; RT (25° C.), 18 weeks",6.7 U/cm^2
same,residual activity of alcohol dehydrogenase,[4],about 60%
same,TM,D-lactate dehydrogenase,59.1 °C
same,ΔHcal,D-lactate dehydrogenase,19 kcal/mol
same,ADH activity after 2 weeks at 2-8° C.,"[5]; 16 mmol/l coenzyme, 2 weeks at 2-8° C.",100.7 % of initial value
same,ADH activity after 3 months at 2-8° C.,"[5]; 16 mmol/l coenzyme, 3 months at 2-8° C.",91.3 % of initial value
same,ADH activity after 7.5 months at 2-8° C.,"[5]; 16 mmol/l coenzyme, 7.5 months at 2-8° C.",95.6 % of initial value
same,ADH activity after 10 months at 2-8° C.,"[5]; 16 mmol/l coenzyme, 10 months at 2-8° C.",88.2 % of initial value
same,ADH activity after 12 months at 2-8° C.,"[5]; 16 mmol/l coenzyme, 12 months at 2-8° C.",83.8 % of initial value
same,ADH activity % of weighed amount (initial value),[5]; [6],71.9 % of weighed amount
same,ADH activity U/ml (initial value),[5]; [6],120.2 U/ml
same,higher residual activity of alcohol dehydrogenase compared to 0.5 mM cNAD,"[5]; 2 weeks at 35° C., 15 mM cNAD",approximately 45%
same,higher residual activity of alcohol dehydrogenase compared to 16 mM NAD solution,"[5]; 12 months at 2-8° C., 16 mM cNAD",approximately 20%
same,ADH activity % of weighed amount (initial value),"[5]; Sample 1, pH 7.85, 0.5 mM cNAD",73.7 % of weighed amount
same,ADH activity U/ml (initial value),"[5]; Sample 1, pH 7.85, 0.5 mM cNAD",123.1 U/ml
same,ADH activity after 2 weeks at 2-8° C.,"[5]; Sample 1, pH 7.85, 0.5 mM cNAD",93.8 % of initial value
same,ADH activity after 2 weeks at 35° C.,"[5]; Sample 1, pH 7.85, 0.5 mM cNAD",31.1 % of initial value
same,ADH activity % of weighed amount (initial value),"[5]; Sample 2, pH 7.85, 1 mM cNAD",75.3 % of weighed amount
same,ADH activity U/ml (initial value),"[5]; Sample 2, pH 7.85, 1 mM cNAD",125.8 U/ml
same,ADH activity after 2 weeks at 2-8° C.,"[5]; Sample 2, pH 7.85, 1 mM cNAD",97.7 % of initial value
same,ADH activity after 2 weeks at 35° C.,"[5]; Sample 2, pH 7.85, 1 mM cNAD",45.5 % of initial value
same,ADH activity % of weighed amount (initial value),"[5]; Sample 3, pH 7.85, 5 mM cNAD",74.9 % of weighed amount
same,ADH activity U/ml (initial value),"[5]; Sample 3, pH 7.85, 5 mM cNAD",125.1 U/ml
same,ADH activity after 2 weeks at 2-8° C.,"[5]; Sample 3, pH 7.85, 5 mM cNAD",101.1 % of initial value
same,ADH activity after 2 weeks at 35° C.,"[5]; Sample 3, pH 7.85, 5 mM cNAD",74.1 % of initial value
same,ADH activity % of weighed amount (initial value),"[5]; Sample 4, pH 7.85, 15 mM cNAD",74.1 % of weighed amount
same,ADH activity U/ml (initial value),"[5]; Sample 4, pH 7.85, 15 mM cNAD",123.7 U/ml
same,ADH activity after 2 weeks at 2-8° C.,"[5]; Sample 4, pH 7.85, 15 mM cNAD",104.0 % of initial value
same,ADH activity after 2 weeks at 35° C.,"[5]; Sample 4, pH 7.85, 15 mM cNAD",77.6 % of initial value
